We go through six compounds from patent US4355040A, “Hypotensive imidazole-5-acetic acid derivatives” (Takeda Chemical Industries, Ltd., priority 1979, dated 1982).

Like-named read-outs stand apart in the source and are kept apart here.

Assay [1] deals with angiotensin II-induced elevation of blood pressure. In words: Inhibitory activity against angiotensin II-induced elevation of blood pressure in rats. The assay is classed as in vivo, Male SD rats. The conditions noted are these: for inhibition in vivo at 0.1 mg/kg / inhibition in vivo at 0.3 mg/kg / inhibition in vivo at 0.03 mg/kg / inhibition in vivo at 3 mg/kg / inhibition in vivo at 0.5 mg/kg: Rattus norvegicus, iv; for inhibition in vivo at 0.03 mg/kg: 0.03 mg/kg intravenously; for inhibition in vivo at 3 mg/kg: 3.0 mg/kg intravenously; for inhibition in vivo at 0.5 mg/kg: 0.5 mg/kg intravenously.

Assay [2] deals with angiotensin II (aortic blood vessel of rabbits). In words: Antagonistic effect on angiotensin II (A II)-induced tension, aortic blood vessel of rabbits. The assay is classed as cell-based. The conditions noted are these: Oryctolagus cuniculus, 0.25 h, A II 4×10^-9 M, 15 minutes.
Excerpt: Antagonistic effect of the compound (I) of the present invention on angiotensin II (hereinafter referred to briefly as "A II") (with aortic blood vessel of rabbits)
The blood-vessel preparation and reaction were done in accordance with the method as described in "European Journal of Pharmacology", 18, 316 (1972). […] [formula] where; T1 =Change in isometric tension of the blood vessel brought about by A II without a test drug substance (g)
Where [3] appears, read: 10 min, read-out: Inhibition (%), after 10 min.
[4] abbreviates: 0.5 h, read-out: Inhibition (%), after 30 min.
Setting [5] is: 1.5 h, read-out: Inhibition (%), after 90 min.
[6] abbreviates: 10 min, A II 20 ng/kg/min, 10 min, read-out: Inhibition (%), after 10 min.
Setting [7] is: 0.5 h, A II 20 ng/kg/min, 30 min, read-out: Inhibition (%), after 30 min.
Where [8] appears, read: 1.5 h, A II 20 ng/kg/min, 90 min, read-out: Inhibition (%), after 90 min.
[9] abbreviates: 10 min, 0.1 mg/kg intravenously, A II 20 ng/kg/min, 10 min, read-out: Inhibition (%), after 10 min.
Where [10] appears, read: 0.5 h, 0.1 mg/kg intravenously, A II 20 ng/kg/min, 30 min, read-out: Inhibition (%), after 30 min.
Where [11] appears, read: 1.5 h, 0.1 mg/kg intravenously, A II 20 ng/kg/min, 90 min, read-out: Inhibition (%), after 90 min.

On to `O=C(O)Cc1c(Cl)nc(-c2cc([N+](=O)[O-])c(Cl)c([N+](=O)[O-])c2)n1Cc1ccccc1` [drawing 135], for which the inhibition in vivo at 0.1 mg/kg came out at 22.5 ± 3.2% in assay [1] (setting [3]), 55 ± 7.5% in assay [1] (setting [4]) and 55 ± 7.5% in assay [1] (setting [5]). Also, the inhibition in vivo at 0.3 mg/kg in assay [1] (setting [3]) is 18%; in assay [1] (setting [4]), 72%; in assay [1] (setting [5]), 72%.
For the compound `CCCCOc1ccc(Cn2c(-c3ccccc3)nc(Cl)c2CC(=O)O)cc1` [drawing 136], the inhibition in vivo at 0.03 mg/kg in assay [1] (setting [6]) was 17%; in assay [1] (setting [7]) it was 46.5%; in assay [1] (setting [8]), 40%. The inhibition in vivo at 3 mg/kg in assay [1] (setting [6]) came to 20%; in assay [1] (setting [7]) it was 40%; in assay [1] (setting [8]), 0%.
Turning to `COc1ccc(Cn2c(-c3ccccc3)nc(Cl)c2CC(=O)O)cc1C` [drawing 137], the inhibition in vivo at 0.5 mg/kg in assay [1] (setting [6]) worked out at 33 ± 15%; in assay [1] (setting [7]), 60 ± 18%; in assay [1] (setting [8]), 62 ± 7%.
A word on the inhibition: it is the change of the read-out against control, counted positive when it falls. Consider `CCCCc1nc(Cl)c(CC(=O)O)n1Cc1ccccc1Cl` [n-C4 H9 / 2-Cl / H / H], for which the values for the inhibition in vivo at 0.1 mg/kg in assay [1] (setting [9]), in assay [1] (setting [10]) and in assay [1] (setting [11]) were 38%, 100% and 86%, respectively. The compound further returned an inhibition at 0.1 µM in assay [2] (10^-7 M drug substance) of 75%.
Turning to `CCCCc1nc(Cl)c(CC(=O)O)n1Cc1ccccc1` [n-C4 H9 / H / H / H, 1-Benzyl-2-n-butyl-4-chloroimidazole-5-acetic acid], the inhibition in vivo at 0.1 mg/kg came out at 19.6 ± 1.5% in assay [1] (setting [9]), 64.3 ± 15.3% in assay [1] (setting [10]) and 60 ± 21.5% in assay [1] (setting [11]). Further, the inhibition in vivo at 0.3 mg/kg in assay [1] (10 min, 0.3 mg/kg intravenously, A II 20 ng/kg/min, 10 min, read-out: Inhibition (%), after 10 min.) amounted to 25%; in assay [1] (0.5 h, 0.3 mg/kg intravenously, A II 20 ng/kg/min, 30 min, read-out: Inhibition (%), after 30 min.), 94%; in assay [1] (1.5 h, 0.3 mg/kg intravenously, A II 20 ng/kg/min, 90 min, read-out: Inhibition (%), after 90 min.), 94%. Also, the inhibition at 1 µM in assay [2] (10^-6 M drug substance, read-out: Inhibition) was 55%.
Take “A II: angiotensin II (hereinafter referred to briefly as "A II") (DRVYIHPF; Angiotensin-2; UniProt P01019 25-32, looked up) [reference compound]”: the “elevation of blood pressure after the infusion of A II, as compared with the one before the infusion” value in assay [1] (A II 20 ng/kg/min continuous intravenous infusion, 75 cases, no test drug) came to 45.5±2.1 mmHg.
